Measured values reported in patent US20240368104A1, “Novel Dialkoxynaphtho[2,3-C]Furan-1(3H)-One Derivatives and Pharmaceutical Composition For Preventing or Treating Respiratory Disease or SARS-COV-2 Infection Disease, Comprising Same” (priority 2021, published 2024).
Where a name gives a salt, the structure may show the parent alone. Read-outs that look alike come from different tables or passages of the source.

Key:
SARS-COV-2 = test: microbe, parasite or virus in culture; type: cell-based; design: SI (Selectivity Index, CC50/IC50): unit not given here; details: for SI (Selectivity Index, CC50/IC50): SARS-COV-2, values >50 assumed to be 50; for IC50: read-out: SARS-COV-2 inhibition (IC50)
in vitro = details: African green monkey
[1] = Severe acute respiratory syndrome coronavirus 2, Vero, 24 h
[2] = Severe acute respiratory syndrome coronavirus 2, Vero cells, 24 hours infection

Structure (SMILES) | SI (Selectivity Index, CC50/IC50) (SARS-COV-2) | IC50 (SARS-COV-2; [1]) | CC50 (in vitro) | IC50 (SARS-COV-2; [2])
COc1cc2cc3c(c(-c4cnc(N5CCC[C@@H]5CO)nc4)c2cc1OC)C(=O)OC3.Cl [Example 82, (R)-9-(2-(2-(hydroxymethyl)pyrrolidin-1-yl)pyrimidin-5-yl)-6,7-dimethoxynaphtho[2,3-c]furan-1(3H)-one hydrochloride] | 3.93 | 12.7 µM | > 50 µM | 
COc1cc2cc3c(c(-c4cnc(N5CCC[C@H]5CO)nc4)c2cc1OC)C(=O)OC3.Cl [Example 83, (S)-9-(2-(2-(hydroxymethyl)pyrrolidin-1-yl)pyrimidin-5-yl)-6,7-dimethoxynaphtho[2,3-c]furan-1(3H)-one hydrochloride] | 1.65 | 30.3 µM | > 50 µM | 
COc1cc2cc3c(c(-c4cnc(N(CCO)CCO)nc4)c2cc1OC)C(=O)OC3.Cl [Example 85, 9-(2-(bis(2-hydroxyethyl)amino)pyrimidin-5-yl)-6,7-dimethoxynaphtho[2,3-c]furan-1(3H)-one hydrochloride] | 1.00 | > 50 µM | > 50 µM | 
CCCCCCCCCCN(CCCCCCCCCC)c1ncc(-c2c3c(cc4cc(OC)c(OC)cc24)COC3=O)cn1.Cl [Example 87, 9-(2-(didecylamino)pyrimidin-5-yl)-6,7-dimethoxynaphtho[2,3-c]furan-1(3H)-one hydrochloride] | 1.00 | > 50 µM | > 50 µM | 
COc1cc2cc3c(c(-c4cc5c(cc4OC)OCO5)c2cc1OC)C(=O)OC3 [Example 88, 6,7-dimethoxy-9-(6-methoxybenzo[d][1,3]dioxol-5-yl)naphtho[2,3-c]furan-1(3H)-one] | 3.00 |  | > 50 µM | 16.6 µM
COc1cc2cc3c(c(-c4cnc(N5CCC6(CC5)OCCO6)nc4)c2cc1OC)C(=O)OC3 [Example 89, 9-(2-(1,4-dioxa-8-azaspiro[4.5]decan-8-yl)pyrimidin-5-yl)-6,7-dimethoxynaphtho[2,3-c]furan-1(3H)-one] | 1.00 |  | > 50 µM | > 50 µM
COC(=O)CN(C)c1ncc(-c2c3c(cc4cc(OC)c(OC)cc24)COC3=O)cn1.Cl [Example 90, methyl N-(5-(6,7-dimethoxy-3-oxo-1,3-dihydronaphtho[2,3-c]furan-4-yl)pyrimidin-2-yl)-N-methyl glycinate hydrochloride] | 16.96 | 2.95 µM | > 50 µM | 
COc1cc2cc3c(c(-c4cnc(NC5CCCC5)nc4)c2cc1OC)C(=O)OC3.Cl [Example 91, 9-(2-(cyclopentylamino)pyrimidin-5-yl)-6,7-dimethoxynaphtho[2,3-c]furan-1(3H)-one hydrochloride] | 5.15 | 9.7 µM | > 50 µM | 
CCN(c1ncc(-c2c3c(cc4cc(OC)c(OC)cc24)COC3=O)cn1)C1CCCC1.Cl [Example 92, 9-(2-(cyclopentyl(ethyl)amino)pyrimidin-5-yl)-6,7-dimethoxynaphtho[2,3-c]furan-1(3H)-one hydrochloride] | 42.34 | 1.18 µM | > 50 µM | 
COc1cc2cc3c(c(-c4cnc(N(C)CC(OC)OC)nc4)c2cc1OC)C(=O)OC3 [Example 94, 9-(2-((2,2-dimethoxyethyl)(methyl)amino)pyrimidin-5-yl)-6,7-dimethoxynaphtho[2,3-c]furan-1(3H)-one] | 10.16 |  | > 50 µM | 4.92 µM
CCCCCCCCN(CCCCCCCC)c1ncc(-c2c3c(cc4cc(OC)c(OC)cc24)COC3=O)cn1.Cl [Example 95, 9-(2-(dioctylamino)pyrimidin-5-yl)-6,7-dimethoxynaphtho[2,3-c]furan-1(3H)-one hydrochloride] | 1.00 | > 50 µM | > 50 µM | 
COc1cc2cc3c(c(-c4cnc(N(C)[C@H]5CCc6c(cccc6OC)C5)nc4)c2cc1OC)C(=O)OC3.Cl [Example 96, (S)-6,7-dimethoxy-9-(2-((5-methoxy-1,2,3,4-tetrahydronaphthalen-2-yl)(methyl)amino)pyrimidin-5-yl)naphtho[2,3-c]furan-1(3H)-one hydrochloride] | 27.11 | 1.84 µM | > 50 µM | 
COC[C@@H]1CCCN1c1ncc(-c2c3c(cc4cc(OC)c(OC)cc24)COC3=O)cn1.Cl [Example 97, (S)-6,7-dimethoxy-9-(2-(2-(methoxymethyl)pyrrolidin-1-yl)pyrimidin-5-yl)naphtho[2,3-c]furan-1(3H)-one hydrochloride] | 8.74 | 5.72 µM | > 50 µM | 
COc1cc2cc3c(c(-c4cc5c(cc4OC(=O)OC(C)C)OCO5)c2cc1OC)C(=O)OC3 [Example 98, 6-(6,7-dimethoxy-3-oxo-1,3-dihydronaphtho[2,3-c]furan-4-yl)benzo[d][1,3]dioxol-5-yl isopropyl carbonate] | 3.18 |  | > 50 µM | 15.7 µM
COc1cc2cc3c(c(-c4cc5c(cc4OC(=O)OC4CCCCC4)OCO5)c2cc1OC)C(=O)OC3 [Example 99, cyclohexyl (6-(6,7-dimethoxy-3-oxo-1,3-dihydronaphtho[2,3-c]furan-4-yl)benzo[d][1,3]dioxol-5-yl)carbonate] | 8.70 |  | > 50 µM | 5.75 µM
CCC(C)N(C)c1ncc(-c2c3c(cc4cc(OC)c(OC)cc24)COC3=O)cn1.Cl (stereo not drawn) [Example 100, 9-(2-(sec-butyl(methyl)amino)pyrimidin-5-yl)-6,7-dimethoxynaphtho[2,3-c]furan-1(3H)-one hydrochloride] | 96.21 | 0.52 µM | > 50 µM | 
COc1cc2cc3c(c(-c4cnc(N(C)CCC5=CCCCC5)nc4)c2cc1OC)C(=O)OC3.Cl [Example 101, 9-(2-((2-(cyclohex-1-en-1-yl)ethyl)(methyl)amino)pyrimidin-5-yl)-6,7-dimethoxynaphtho[2,3-c]furan-1(3H)-one hydrochloride] | 13.00 | 3.85 µM | > 50 µM | 
COC[C@H]1CCCN1c1ncc(-c2c3c(cc4cc(OC)c(OC)cc24)COC3=O)cn1 [Example 102, (R)-6,7-dimethoxy-9-(2-(2-(methoxymethyl)pyrrolidin-1-yl)pyrimidin-5-yl)naphtho[2,3-c]furan-1(3H)-one hydrochloride] | 30.41 | 1.64 µM | > 50 µM | 
COc1cc2cc3c(c(-c4cnc(N(C)Cc5ccc(C)o5)nc4)c2cc1OC)C(=O)OC3 [Example 103, 6,7-dimethoxy-9-(2-(methyl((5-methylfuran-2-yl)methyl)amino)pyrimidin-5-yl)naphtho[2,3-c]furan-1(3H)-one hydrochloride] | 175.17 | 0.29 µM | > 50 µM | 
COc1cc2cc3c(c(-c4cnc(N5CCCCC5CO)nc4)c2cc1OC)C(=O)OC3 (stereo not drawn) [Example 104, 9-(2-(2-(hydroxymethyl)piperidin-1-yl)pyrimidin-5-yl)-6,7-dimethoxynaphtho[2,3-c]furan-1(3H)-one hydrochloride] | 1.0 | > 50 µM | > 50 µM | 
CCCN(CC1CC1)c1ncc(-c2c3c(cc4cc(OC)c(OC)cc24)COC3=O)cn1 [Example 105, 9-(2-((cyclopropylmethyl)(propyl)amino)pyrimidin-5-yl)-6,7-dimethoxynaphtho[2,3-c]furan-1(3H)-one hydrochloride] | 9.56 | 5.23 µM | > 50 µM | 
CCN(C)c1ncc(-c2c3c(cc4cc(OC)c(OC)cc24)COC3=O)cn1 [Example 106, 9-(2-(ethyl(methyl)amino)pyrimidin-5-yl)-6,7-dimethoxynaphtho[2,3-c]furan-1(3H)-one hydrochloride] | 297.58 | 0.17 µM | > 50 µM | 
COc1cc2cc3c(c(-c4cnc(N5CCC(C)CC5)nc4)c2cc1OC)C(=O)OC3 [Example 107, 6,7-dimethoxy-9-(2-(4-methylpiperidin-1-yl)pyrimidin-5-yl)naphtho[2,3-c]furan-(3H)-one hydrochloride] | 35.49 |  | > 50 µM | 1.41 µM
CNc1ncc(-c2c3c(cc4cc(OC)c(OC)cc24)COC3=O)cn1 [Example 108, 6,7-dimethoxy-9-(2-(methylamino)pyrimidin-5-yl)naphtho[2,3-c]furan-1(3H)-one] | 18.03 |  | > 50 µM | 2.77 µM
COc1cc2cc3c(c(-c4cnc(N(C)c5ccc(C)c(C)c5)nc4)c2cc1OC)C(=O)OC3 [Example 109, 9-(2-((3,4-dimethylphenyl)(methyl)amino)pyrimidin-5-yl)-6,7-dimethoxynaphtho[2,3-c]furan-1(3H)-one] | 18.73 |  | > 50 µM | 2.67 µM
COc1cc2cc3c(c(-c4cnc(N5CCC[C@@H]5CN5CCCC5)nc4)c2cc1OC)C(=O)OC3 [Example 110, (R)-6,7-dimethoxy-9-(2-(2-(pyrrolidin-1-ylmethyl)pyrrolidin-1-yl)pyrimidin-5-yl)naphtho[2,3-c]furan-1(3H)-one] | 5.78 |  | > 50 µM | 8.66 µM
COc1cc2cc3c(c(-c4cnc(N(C)CCN5CCOCC5)nc4)c2cc1OC)C(=O)OC3 [Example 111, 6,7-dimethoxy-9-(2-(methyl(2-morpholinoethyl)amino)pyrimidin-5-yl)naphtho[2,3-c]furan-1(3H)-one hydrochloride] | 2.37 | 21.1 µM | > 50 µM | 
COc1cc2cc3c(c(-c4cnc(N(C)CCCN5CCOCC5)nc4)c2cc1OC)C(=O)OC3 [Example 112, 6,7-dimethoxy-9-(2-(methyl(3-morpholinopropyl)amino)pyrimidin-5-yl)naphtho[2,3-c]furan-1(3H)-one dihydrochloride] | 6.70 | 7.46 µM | > 50 µM | 
